Results from PubChem BioAssay AID1745844 (Carcinogenic Potency Database (CPDB), 2022).
“And” between values parts separate entries of the source, which are not always exact repeats. Equal entries are not always repeated. The source made the active and inactive calls. No rule for the calls is given here.

Test system: rodent lifetime carcinogenesis bioassay, tumor incidence TD50
Test: chronic cancer bioassays in animals – CPDB, compiled studies (AID 1745844)
[1] = rat, strain Fischer 344, females, by gavage, site: liver, lesion: hepatocellular adenoma + hepatocellular carcinoma + neoplastic nodule, dosed 103 weeks, study length 104 weeks
[2] = rat, strain Fischer 344, males, by gavage, site: liver, lesion: hepatocellular adenoma + hepatocellular carcinoma + neoplastic nodule, dosed 103 weeks, study length 104 weeks

For `COC(N)=O`, the carcinogen call (mouse, strain B6C3F1, females, by gavage, site: any site (literature study), lesion: several types, types named in the paper, dosed 103 weeks, study length 104 weeks) was “negative (inactive)”, the TD50 (mouse, strain B6C3F1, females, by gavage, site: liver, lesion: hepatocellular adenoma + hepatocellular carcinoma + neoplastic nodule, dosed 103 weeks, study length 104 weeks) was 4700 mg/kg/day and the TD50 (mouse, strain B6C3F1, males, by gavage, site: any site (literature study), lesion: several types, types named in the paper, dosed 103 weeks, study length 104 weeks) was 5220 mg/kg/day (inactive). The TD50 (mouse, strain B6C3F1, males, by gavage, site: liver, lesion: hepatocellular adenoma + hepatocellular carcinoma + neoplastic nodule, dosed 103 weeks, study length 104 weeks) was 5080 mg/kg/day, the TD50 [1] was 839 mg/kg/day and the TD50 (rat, strain Fischer 344, females, by gavage, site: liver, lesion: hepatocellular carcinoma + neoplastic nodule, dosed 103 weeks, study length 104 weeks) was 839 mg/kg/day. The TD50 (rat, strain Fischer 344, females, by gavage, site: liver, lesion: hepatocellular carcinoma, dosed 52 weeks, study length 52 weeks) was 53.4 mg/kg/day, the TD50 (rat, strain Fischer 344, females, by gavage, site: liver, lesion: hepatocellular carcinoma, dosed 78 weeks, study length 78 weeks) was 68.4 mg/kg/day and the TD50 (rat, strain Fischer 344, females, by gavage, site: liver, lesion: neoplastic nodule, dosed 52 weeks, study length 52 weeks) was 21.3 mg/kg/day. For the same molecule, the TD50 (rat, strain Fischer 344, females, by gavage, site: liver, lesion: neoplastic nodule, dosed 78 weeks, study length 78 weeks) was 159 mg/kg/day, the TD50 (rat, strain Fischer 344, females, by gavage, site: liver, lesion: neoplastic nodule, dosed 103 weeks, study length 104 weeks) was 979 mg/kg/day and the TD50 [2] was 2030 mg/kg/day. It also gave a TD50 (rat, strain Fischer 344, males, by gavage, site: liver, lesion: hepatocellular carcinoma + neoplastic nodule, dosed 103 weeks, study length 104 weeks) of 2030 mg/kg/day, a TD50 (rat, strain Fischer 344, males, by gavage, site: liver, lesion: hepatocellular carcinoma, dosed 52 weeks, study length 52 weeks) of 30.4 mg/kg/day and a TD50 (rat, strain Fischer 344, males, by gavage, site: liver, lesion: hepatocellular carcinoma, dosed 78 weeks, study length 78 weeks) of 47.8 mg/kg/day. The TD50 (rat, strain Fischer 344, males, by gavage, site: liver, lesion: neoplastic nodule, dosed 52 weeks, study length 52 weeks) was 40.7 mg/kg/day and the TD50 (rat, strain Fischer 344, males, by gavage, site: liver, lesion: neoplastic nodule, dosed 78 weeks, study length 78 weeks) was 494 mg/kg/day.

Molecule `[N-]=[N+]=CC(=O)OC[C@H](N)C(=O)O` has a TD50 (rat, strain Wistar, both sexes, i.p., site: kidney, lesion: one or several types, types not named, dosed 26 weeks, study length 78 weeks) of 0.942 mg/kg/day, a TD50 (rat, strain Wistar, both sexes, i.p., site: liver, lesion: one or several types, types not named, dosed 26 weeks, study length 78 weeks) of 3.02 mg/kg/day and a TD50 (rat, strain Wistar, both sexes, i.p., site: pancreas, exocrine, lesion: carcinoma, dosed 26 weeks, study length 78 weeks) of 0.793 mg/kg/day. The carcinogen call (rat, strain Wistar, males, i.p., site: pancreas, lesion: one or several types, types not named, dosed 104 weeks, study length 104 weeks) was “negative (inactive)”.

With `NCCCCCCCCCCC(=O)O` the TD50 (mouse, strain B6C3F1, females, in feed, site: any site (literature study), lesion: several types, types named in the paper, dosed 103 weeks, study length 109 weeks) was 15600 mg/kg/day (inactive), the TD50 (mouse, strain B6C3F1, females, in feed, site: liver, lesion: hepatocellular adenoma + hepatocellular carcinoma + neoplastic nodule, dosed 103 weeks, study length 109 weeks) was 37900 mg/kg/day and the TD50 (mouse, strain B6C3F1, females, in feed, site: lung, lesion: alveolar/bronchiolar adenoma + alveolar/bronchiolar carcinoma, dosed 103 weeks, study length 109 weeks) was 18800 mg/kg/day. The TD50 (mouse, strain B6C3F1, males, in feed, site: all sites, lesion: malignant lymphoma, dosed 103 weeks, study length 109 weeks) was 4970 mg/kg/day (inactive), the TD50 (mouse, strain B6C3F1, males, in feed, site: any site (literature study), lesion: several types, types named in the paper, dosed 103 weeks, study length 109 weeks) was 6500 mg/kg/day and the TD50 (mouse, strain B6C3F1, males, in feed, site: liver, lesion: hepatocellular adenoma + hepatocellular carcinoma + neoplastic nodule, dosed 103 weeks, study length 109 weeks) was 6250 mg/kg/day. The TD50 (rat, strain Fischer 344, females, in feed, site: any site (literature study), lesion: several types, types named in the paper, dosed 104 weeks, study length 109 weeks) was 1250 mg/kg/day (inactive), the TD50 (rat, strain Fischer 344, females, in feed, site: liver, lesion: hepatocellular adenoma + hepatocellular carcinoma + neoplastic nodule, dosed 104 weeks, study length 109 weeks) was 44600 mg/kg/day and the TD50 (rat, strain Fischer 344, males, in feed, site: any site (literature study), lesion: several types, types named in the paper, dosed 104 weeks, study length 109 weeks) was 802 mg/kg/day. It also gave a TD50 (rat, strain Fischer 344, males, in feed, site: liver + urinary bladder, lesion: hepatocellular carcinoma + neoplastic nodule + transitional-cell carcinoma, dosed 104 weeks, study length 109 weeks) of 833 mg/kg/day, a TD50 (rat, strain Fischer 344, males, in feed, site: liver, lesion: hepatocellular adenoma + hepatocellular carcinoma + neoplastic nodule, dosed 104 weeks, study length 109 weeks) of 1100 mg/kg/day and a TD50 (rat, strain Fischer 344, males, in feed, site: liver, lesion: hepatocellular carcinoma + neoplastic nodule, dosed 104 weeks, study length 109 weeks) of 1100 mg/kg/day. The TD50 (rat, strain Fischer 344, males, in feed, site: liver, lesion: neoplastic nodule, dosed 104 weeks, study length 109 weeks) was 1290 mg/kg/day, the TD50 (rat, strain Fischer 344, males, in feed, site: mammary gland, lesion: fibroadenoma, dosed 104 weeks, study length 109 weeks) was 2910 mg/kg/day and the TD50 (rat, strain Fischer 344, males, in feed, site: urinary bladder, lesion: transitional-cell carcinoma, dosed 104 weeks, study length 109 weeks) was 3170 mg/kg/day.

`CC(=O)C(N=Nc1ccc(Cl)cc1Cl)C(=O)Nc1ccc(-c2ccc(NC(=O)C(N=Nc3ccc(Cl)cc3Cl)C(C)=O)c(C)c2)cc1C` (stereo not drawn) was tested, and the TD50 (mouse, strain NMRI, both sexes, in feed, site: any site (literature study), lesion: one or several types, types not named, dosed 104 weeks, study length 104 weeks) was 11700 mg/kg/day (inactive) and the TD50 (rat, strain Sprague-Dawley, both sexes, in feed, site: any site (literature study), lesion: one or several types, types not named, dosed 104 weeks, study length 104 weeks) was 13700 mg/kg/day (inactive).

`Cn1cc(C(=O)O)c(=O)c2ccc(/C=C/c3ccc([N+](=O)[O-])o3)nc21` was tested, and the TD50 (mouse, strain ICR/Jcl, both sexes, in feed, site: forestomach, lesion: squamous-cell carcinoma, dosed 54 weeks, study length 54 weeks) was 10.3 mg/kg/day, the TD50 (mouse, strain ICR/Jcl, both sexes, in feed, site: lung, lesion: adenoma, dosed 54 weeks, study length 54 weeks) was 8.03 mg/kg/day and the TD50 (mouse, strain ICR/Jcl, both sexes, in feed, site: lung, lesion: carcinoma, dosed 54 weeks, study length 54 weeks) was 21.9 mg/kg/day. For the same molecule, the TD50 (mouse, strain ICR/Jcl, both sexes, in feed, site: thymus gland, lesion: lymphatic leukemia, dosed 54 weeks, study length 54 weeks) was 26.5 mg/kg/day.

`Clc1ccccc1` was tested, and the TD50 (mouse, strain B6C3F1, females, by gavage, site: any site (literature study), lesion: several types, types named in the paper, dosed 103 weeks, study length 105 weeks) was 373 mg/kg/day (inactive), the TD50 (mouse, strain B6C3F1, females, by gavage, site: liver, lesion: hepatocellular adenoma + hepatocellular carcinoma + neoplastic nodule, dosed 103 weeks, study length 105 weeks) was 235 mg/kg/day and the TD50 (mouse, strain B6C3F1, females, by gavage, site: lung, lesion: alveolar/bronchiolar adenoma + alveolar/bronchiolar carcinoma, dosed 103 weeks, study length 105 weeks) was 623 mg/kg/day. For the same molecule, the TD50 (mouse, strain B6C3F1, males, by gavage, site: any site (literature study), lesion: several types, types named in the paper, dosed 103 weeks, study length 105 weeks) was 60.1 mg/kg/day (inactive), the TD50 (mouse, strain B6C3F1, males, by gavage, site: liver, lesion: hepatocellular adenoma + hepatocellular carcinoma + neoplastic nodule, dosed 103 weeks, study length 105 weeks) was 382 mg/kg/day and the TD50 (mouse, strain B6C3F1, males, by gavage, site: lung, lesion: alveolar/bronchiolar adenoma + alveolar/bronchiolar carcinoma, dosed 103 weeks, study length 105 weeks) was 190 mg/kg/day. The TD50 [1] was 867 mg/kg/day, the TD50 (rat, strain Fischer 344, females, by gavage, site: parathyroid + thyroid gland + thyroid follicle, lesion: adenoma, NOS + follicular-cell carcinoma + cystadenoma, NOS, dosed 103 weeks, study length 104 weeks) was 520 mg/kg/day (inactive) and the TD50 (rat, strain Fischer 344, males, by gavage, site: any site (literature study), lesion: several types, types named in the paper, dosed 103 weeks, study length 104 weeks) was 190 mg/kg/day. It also gave a TD50 [2] of 328 mg/kg/day and a TD50 (rat, strain Fischer 344, males, by gavage, site: liver, lesion: neoplastic nodule, dosed 103 weeks, study length 104 weeks) of 247 mg/kg/day.

With `CC1CN(N=O)CC(C)N1C(=O)c1ccccc1` (stereo not drawn) the carcinogen call (rat, strain Fischer 344, females, in drinking water, site: any site (literature study), lesion: several types, types named in the paper, dosed 50 weeks, study length 125 weeks) was “positive”, the TD50 (rat, strain Fischer 344, females, in drinking water, site: forestomach, lesion: basal-cell carcinoma, dosed 50 weeks, study length 125 weeks) was 26.4 mg/kg/day and the TD50 (rat, strain Fischer 344, females, in drinking water, site: forestomach, lesion: papilloma, dosed 50 weeks, study length 125 weeks) was 9.66 mg/kg/day. The TD50 (rat, strain Fischer 344, females, in drinking water, site: liver, lesion: one or several types, types not named, dosed 50 weeks, study length 125 weeks) was 9.1 mg/kg/day.

With `CCC(Br)(CC)C(=O)NC(N)=O` the TD50 (mouse, strain B6C3F1, females, in feed, site: any site (literature study), lesion: several types, types named in the paper, dosed 78 weeks, study length 104 weeks) was 5320 mg/kg/day, the TD50 (mouse, strain B6C3F1, females, in feed, site: liver, lesion: hepatocellular adenoma + hepatocellular carcinoma + neoplastic nodule, dosed 78 weeks, study length 104 weeks) was 1950 mg/kg/day and the TD50 (mouse, strain B6C3F1, females, in feed, site: lung, lesion: alveolar/bronchiolar adenoma + alveolar/bronchiolar carcinoma, dosed 78 weeks, study length 104 weeks) was 553 mg/kg/day (inactive) and 553 mg/kg/day. For the same molecule, the carcinogen call (mouse, strain B6C3F1, males, in feed, site: any site (literature study), lesion: several types, types named in the paper, dosed 78 weeks, study length 104 weeks) was “negative (inactive)”, the TD50 (mouse, strain B6C3F1, males, in feed, site: liver, lesion: hepatocellular adenoma + hepatocellular carcinoma + neoplastic nodule, dosed 78 weeks, study length 104 weeks) was 1580 mg/kg/day and the carcinogen call (rat, strain Fischer 344, females, in feed, site: any site (literature study), lesion: several types, types named in the paper, dosed 103 weeks, study length 104 weeks) was “negative (inactive)”. The TD50 (rat, strain Fischer 344, males, in feed, site: any site (literature study), lesion: several types, types named in the paper, dosed 103 weeks, study length 104 weeks) was 1030 mg/kg/day (inactive).

For `Clc1ccc(C(c2ccccc2Cl)C(Cl)Cl)cc1` (stereo not drawn), the TD50 (mouse, strain B6AKF1, females, oral dosing, site: any site (literature study), lesion: several types, types named in the paper, dosed 76 weeks, study length 76 weeks) was 102 mg/kg/day, the TD50 (mouse, strain B6AKF1, females, oral dosing, site: lung, lesion: adenoma, dosed 76 weeks, study length 76 weeks) was 236 mg/kg/day and the TD50 (mouse, strain B6AKF1, males, oral dosing, site: any site (literature study), lesion: several types, types named in the paper, dosed 76 weeks, study length 76 weeks) was 187 mg/kg/day. For the same molecule, the TD50 (mouse, strain B6AKF1, males, oral dosing, site: lung, lesion: adenoma, dosed 76 weeks, study length 76 weeks) was 414 mg/kg/day, the TD50 (mouse, strain B6AKF1, males, oral dosing, site: lung, lesion: carcinoma, dosed 76 weeks, study length 76 weeks) was 467 mg/kg/day and the TD50 (mouse, strain B6C3F1, males, oral dosing, site: all sites, lesion: reticulum-cell sarcoma, dosed 76 weeks, study length 76 weeks) was 82.1 mg/kg/day. The TD50 (mouse, strain B6C3F1, males, oral dosing, site: any site (literature study), lesion: several types, types named in the paper, dosed 76 weeks, study length 76 weeks) was 38.5 mg/kg/day, the TD50 (mouse, strain B6C3F1, males, oral dosing, site: liver, lesion: hepatoma, dosed 76 weeks, study length 76 weeks) was 147 mg/kg/day and the TD50 (mouse, strain B6C3F1, males, oral dosing, site: lung, lesion: adenoma, dosed 76 weeks, study length 76 weeks) was 467 mg/kg/day.
